Test results from patent publication US20250179047A1, “5-[7-(3,4-DIHYDRO-1H-ISOQUINOLINE-2-CARBONYL)-1,2,3,4 TETRAHYDROISOQUINOLIN-6-YL]-1H-PYRROLE-3-CARBOXAMIDE DERIVATIVES, PHARMACEUTICAL COMPOSITIONS CONTAINING THEM AND THEIR USES AS PRO-APOPTOTIC AGENTS” (LES LABORATOIRES SERVIER, priority 2022, published 2025).

Columns and labels:
[1] = molecular target: BCL2 WT (Homo sapiens (Human), UniProt P10415); assay: TR-FRET competitive binding assay, BCL2 WT; conditions: Ki determined from IC50, read-out: TR_FRET EKI_Bcl2 WT
Method in brief: (§1)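 Competitive TR-FRET displacement of fluorescein-PUMA peptide (2 or 20 nM) from 0.5 nM terbium-labelled N-terminal Halo-fusion BCL2 (1-207, wild type or mutant) or BCLXL (2-196), expressed in E. coli. Buffer 50 mM Hepes pH 7.5, 150 mM NaCl, 5% DMSO; 2 h at 23°C. 520/495 nm ratio fitted over 11 points for IC50, converted to Ki.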

[2] = molecular target: BCL2 G101V (Homo sapiens, UniProt P10415, G101V); assay: TR-FRET competitive binding assay, BCL2 G101V; conditions: BCL2 G101V; Ki determined from IC50; read-out: TR_FRET EKI_Bcl2 G101V
Method in brief: as §1

[3] = tested on: BCL2 G101V; assay: TR-FRET competitive binding assay, BCL2 G101V; design: species or system human; conditions: ratio Ki BCL2 G101V / Ki BCL2 WT
Method in brief: as §1

[4] = molecular target: BCL2 D103Y (Homo sapiens, UniProt P10415, D103Y); assay: TR-FRET competitive binding assay, BCL2 D103Y; conditions: Ki determined from IC50, read-out: TR_FRET EKI_Bcl2 D103Y
Method in brief: as §1

[5] = molecular target: BCL2 F104I (Homo sapiens, UniProt P10415, F104I); assay: TR-FRET competitive binding assay, BCL2 F104I; conditions: Ki determined from IC50, read-out: TR_FRET EKI_Bcl2 F104I
Method in brief: as §1

[6] = molecular target: BCL2 D111A (Homo sapiens, UniProt P10415, D111A); assay: TR-FRET competitive binding assay, BCL2 D111A; conditions: Ki determined from IC50, read-out: TR_FRET EKI_Bcl2 D111A
Method in brief: as §1

[7] = molecular target: BCLXL WT (Homo sapiens (Human), UniProt Q07817); assay: TR-FRET competitive binding assay, BCLXL WT; conditions: for Ki: BCLXL WT, Ki determined from IC50, read-out: TR_FRET EKI BclxL; for TR_FRET EKI BCLxL/WT selectivty ratio: ratio Ki BCLxL / Ki BCL2 WT
Method in brief: as §1

[8] = tested on: KMS-12-PE Bcl-2 WT; assay: In vitro cytotoxicity CellTiter-Glo 48 h, KMS-12-PE Bcl-2 WT; format: cell-based; conditions: Homo sapiens, KMS-12-PE, C50 = concentration needed to reach 50% of the cellular viability
Method in brief: (§2)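 KMS-12-PE myeloma cells lentivirally transduced with Bcl-2 WT or G101V (TagRFP-sorted), exposed to compound 11-point dose-response for 48 h at 37 °C, 5% CO2. Viability read by CellTiter-Glo ATP luminescence; C50 is the concentration giving 50% cellular viability.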

[9] = tested on: KMS-12-PE Bcl-2 G101V; assay: In vitro cytotoxicity CellTiter-Glo 48 h, KMS-12-PE Bcl-2 G101V; format: cell-based; conditions: for Ratio (G101V/WT): C50 KMS-12-PE Bcl-2 G101V over C50 KMS-12-PE Bcl-2 WT; for IC50: Homo sapiens, KMS-12-PE, 48 h, CellTiter-Glo, C50 = concentration needed to reach 50% of the cellular viability
Method in brief: as §2

Chain of BCLXL WT (Q07817 other isoform, or with tags, fused parts or gaps): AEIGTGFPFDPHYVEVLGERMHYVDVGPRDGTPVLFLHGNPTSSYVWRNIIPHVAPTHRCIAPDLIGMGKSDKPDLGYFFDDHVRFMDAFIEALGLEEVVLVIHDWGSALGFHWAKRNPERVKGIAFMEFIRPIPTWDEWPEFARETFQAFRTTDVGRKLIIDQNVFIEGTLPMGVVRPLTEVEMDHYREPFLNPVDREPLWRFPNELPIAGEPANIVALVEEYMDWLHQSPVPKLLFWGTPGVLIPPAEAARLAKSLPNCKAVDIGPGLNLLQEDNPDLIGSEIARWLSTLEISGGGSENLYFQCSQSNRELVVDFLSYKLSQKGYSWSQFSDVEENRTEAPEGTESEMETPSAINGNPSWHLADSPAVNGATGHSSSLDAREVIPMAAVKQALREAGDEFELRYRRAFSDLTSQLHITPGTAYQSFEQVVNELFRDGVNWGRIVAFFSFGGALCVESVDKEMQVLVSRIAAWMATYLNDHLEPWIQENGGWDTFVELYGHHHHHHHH

Ki [1]	Ki [2]	TR_FRET EKI G101V/WT selectivty ratio [3]	Ki [4]	Ki [5]	Ki [6]	Ki [7]	TR_FRET EKI BCLxL/WT selectivty ratio [7]	SMILES	IC50 [8]	Ratio (G101V/WT) [9]	IC50 [9]
0.07 nM	0.4 nM	5.4	0.19 nM	0.17 nM	0.13 nM	4.3 nM	61.4	Cc1c(N(C(=O)c2cc(-c3cc4c(cc3C(=O)N3Cc5ccccc5C[C@H]3CN3CCCC[C@@H]3C)CN(C(=O)Cc3ccc(OCCN5CCOCC5)cc3F)CC4)n(C)c2C)c2ccc(O)cc2)cc(C#N)n1C [Example 125, N-(5-cyano-1,2-dimethyl-1H-pyrrol-3-yl)-5-[2-(2-{2-fluoro-4-[2-(morpholin-4-yl)ethoxy]phenyl}acetyl)-7-[(3S)-3-{[(2S)-2-methylpiperidin-1-yl]methyl}-1,2,3,4-tetrahydroisoquinoline-2-carbonyl]-1,2,3,4-tetrahydroisoquinolin-6-yl]-N-(4-hydroxyphenyl)-1,2-dimethyl-1H-pyrrole-3-carboxamide]	0.0036 µM	4.94	0.0178 µM
0.04 nM	0.3 nM	7.2	0.12 nM	0.27 nM	0.15 nM	3.5 nM	81.4	Cc1c(N(C(=O)c2cc(-c3cc4c(cc3C(=O)N3Cc5ccccc5C[C@H]3CN3CCC(C)(C)C3)CN(C(=O)Cc3ccc(OCCN5CCOCC5)cc3F)CC4)n(C)c2C)c2ccc(O)cc2)cc(C#N)n1C [Example 146, N-(5-cyano-1,2-dimethylpyrrol-3-yl)-5-(7-{[(3S)-3-[(3,3-dimethylpyrrolidin-1-yl)methyl]-3,4-dihydro-1H-isoquinolin-2-yl]carbonyl}-2-(2-{2-fluoro-4-[2-(morpholin-4-yl)ethoxy]phenyl}acetyl)-3,4-dihydro-1H-isoquinolin-6-yl)-N-(4-hydroxyphenyl)-1,2-dimethylpyrrole-3-carboxamide]	0.006 µM	5.8167	0.0349 µM
0.06 nM	0.3 nM	4.2	0.18 nM	0.29 nM	0.15 nM	1.5 nM	25.0	Cc1c(N(C(=O)c2cc(-c3cc4c(cc3C(=O)N3Cc5ccccc5C[C@H]3CN3CCCCC3)CN(C(=O)Cc3ccc(OCCN5CCOCC5(C)C)cc3)CC4)n(C)c2C)c2ccc(O)cc2)cc(C#N)n1C [Example 148, N-(5-cyano-1,2-dimethylpyrrol-3-yl)-5-[2-(2-{4-[2-(3,3-dimethylmorpholin-4-yl)ethoxy]phenyl}acetyl)-7-{[(3S)-3-(piperidin-1-ylmethyl)-3,4-dihydro-1H-isoquinolin-2-yl]carbonyl}-3,4-dihydro-1H-isoquinolin-6-yl]-N-(4-hydroxyphenyl)-1,2-dimethylpyrrole-3-carboxamide]	0.007 µM	4.9286	0.0345 µM

More lines, now with the values behind:

SMILES	Ki [1]	Ki [2]	TR_FRET EKI G101V/WT selectivty ratio [3]	Ki [4]	Ki [5]	Ki [6]	Ki [7]	TR_FRET EKI BCLxL/WT selectivty ratio [7]	IC50 [8]	Ratio (G101V/WT) [9]	IC50 [9]
Cc1c(N(C(=O)c2cc(-c3cc4c(cc3C(=O)N3Cc5ccccc5C[C@H]3CN3CCC5(CC3)CC5)CN(C(=O)Cc3ccc(OCCN5CCOCC5)cc3F)CC4)n(C)c2C)c2ccc(O)cc2)cc(C#N)n1C [Example 126, 5-{7-[(3S)-3-({6-azaspiro[2.5]octan-6-yl}methyl)-1,2,3,4-tetrahydroisoquinoline-2-carbonyl]-2-(2-{2-fluoro-4-[2-(morpholin-4-yl)ethoxy]phenyl}acetyl)-1,2,3,4-tetrahydroisoquinolin-6-yl}-N-(5-cyano-1,2-dimethyl-1H-pyrrol-3-yl)-N-(4-hydroxyphenyl)-1,2-dimethyl-1H-pyrrole-3-carboxamide]	0.12 nM	0.7 nM	5.4	0.37 nM	0.49 nM	0.38 nM	7.7 nM	64.2	0.0048 µM	6.34	0.0303 µM
Cc1c(N(C(=O)c2cc(-c3cc4c(cc3C(=O)N3Cc5ccccc5C[C@H]3CN3CCCCC3)CN(C(=O)Cc3ccc(OCCN(C)CCF)cc3F)CC4)n(C)c2C)c2ccc(O)cc2)cc(C#N)n1C [Example 134, N-(5-cyano-1,2-dimethyl-1H-pyrrol-3-yl)-5-{2-[2-(2-fluoro-4-{2-[(2-fluoroethyl)(methyl)amino]ethoxy}phenyl)acetyl]-7-[(3S)-3-[(piperidin-1-yl)methyl]-1,2,3,4-tetrahydroisoquinoline-2-carbonyl]-1,2,3,4-tetrahydroisoquinolin-6-yl}-N-(4-hydroxyphenyl)-1,2-dimethyl-1H-pyrrole-3-carboxamide]	0.06 nM	0.3 nM	5.8	0.18 nM	0.33 nM	0.17 nM	2.6 nM	45.6	0.0058 µM	4.6	0.0265 µM
Cc1c(N(C(=O)c2cc(-c3cc4c(cc3C(=O)N3Cc5ccccc5C[C@H]3CN3CCCCC3)CN(C(=O)Cc3ccc(OCCN5CCOCC5)cc3F)CC4)n3ccccc23)c2ccc(O)cc2)cc(C#N)n1C [Example 136, N-(5-cyano-1,2-dimethyl-pyrrol-3-yl)-3-[2-[2-[2-fluoro-4-(2-morpholinoethoxy)phenyl]acetyl]-7-[(3S)-3-(1-piperidylmethyl)-3,4-dihydro-1H-isoquinoline-2-carbonyl]-3,4-dihydro-1H-isoquinolin-6-yl]-N-(4-hydroxyphenyl)indolizine-1-carboxamide]	0.13 nM	0.6 nM	4.2	0.32 nM	0.17 nM	0.35 nM	2.3 nM	17.7	0.0037 µM	3.22	0.0118 µM
Cc1c(N(C(=O)c2cc(-c3cc4c(cc3C(=O)N3Cc5ccccc5C[C@H]3CN3CC5(CC5)C3)CN(C(=O)Cc3ccc(OCCN5CCOCC5)cc3F)CC4)n(C)c2C)c2ccc(O)cc2)cc(C#N)n1C [Example 145, 5-{7-[(3S)-3-({5-azaspiro[2.3]hexan-5-yl}methyl)-1,2,3,4-tetrahydroisoquinoline-2-carbonyl]-2-(2-{2-fluoro-4-[2-(morpholin-4-yl)ethoxy]phenyl}acetyl)-1,2,3,4-tetrahydroisoquinolin-6-yl}-N-(5-cyano-1,2-dimethyl-1H-pyrrol-3-yl)-N-(4-hydroxyphenyl)-1,2-dimethyl-1H-pyrrole-3-carboxamide]	0.03 nM	0.2 nM	5.4	0.11 nM	0.14 nM	0.07 nM	1.1 nM	39.3	0.0295 µM	5.2203	0.154 µM
Cc1c(N(C(=O)c2cc(-c3cc4c(cc3C(=O)N3Cc5ccccc5C[C@H]3CN(C(C)C)C(C)C)CN(C(=O)Cc3ccc(OCCN5CCOCC5)cc3F)CC4)n(C)c2C)c2ccc(O)cc2)cc(C#N)n1C [Example 152, N-(5-cyano-1,2-dimethylpyrrol-3-yl)-5-(7-{[(3S)-3-[(diisopropylamino)methyl]-3,4-dihydro-1H-isoquinolin-2-yl]carbonyl}-2-(2-{2-fluoro-4-[2-(morpholin-4-yl)ethoxy]phenyl}acetyl)-3,4-dihydro-1H-isoquinolin-6-yl)-N-(4-hydroxyphenyl)-1,2-dimethylpyrrole-3-carboxamide]	0.16 nM	1.1 nM	6.9	0.41 nM	0.64 nM	0.36 nM	3.9 nM	24.4	0.0105 µM	3.5238	0.037 µM
